Laboratory results taken from patent publication US11655217B2, “Pyrazole MAGL inhibitors” (H. Lundbeck A/S, priority 2017, dated 2023).

Molecular target: MAGL (Mus musculus (Mouse), UniProt O35678)
Assay: Mouse brain proteomes from inhibitor treated mice (oral gavage, sacrificed 4 h after administration, ABPP analysis)
Conditions: 5 mg/kg oral gavage
Description: Preparation of Mouse Brain Proteomes from Inhibitor Treated Mice.
Inhibitors were administered to wild-type C57Bl/6J by oral gavage in a vehicle of polyethylene glycol.

MAGL, sequence (O35678 whole entry): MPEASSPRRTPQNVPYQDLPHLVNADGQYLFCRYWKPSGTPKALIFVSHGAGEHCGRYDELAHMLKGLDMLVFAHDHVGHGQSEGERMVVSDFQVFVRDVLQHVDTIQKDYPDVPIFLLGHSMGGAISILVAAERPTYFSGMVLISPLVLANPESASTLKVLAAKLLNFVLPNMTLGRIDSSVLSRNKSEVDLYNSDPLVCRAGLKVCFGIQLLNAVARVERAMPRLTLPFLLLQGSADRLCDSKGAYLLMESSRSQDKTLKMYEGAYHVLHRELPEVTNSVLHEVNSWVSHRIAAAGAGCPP

Compound | MAGL % inh. 5 mg/kg (mouse)
Cc1ccc(Oc2cccc(CN3CCN(C(=O)n4ccc(C(=O)O)n4)CC3)c2)cc1 [Example 251, 1-(4-(3-(p-tolyloxy)benzyl)piperazine-1-carbonyl)-1H-pyrazole-3-carboxylic acid] | D (% inhibition is greater than or equal to 0% and less than 25%)
Cc1cn(C(=O)N2C[C@H]3C[C@H](OCc4cc(F)cc(Cl)c4)C[C@H]3C2)nc1C(=O)O [Example 252, 1-(trans-5-((3-chloro-5-fluorobenzyl)oxy)octahydrocyclo-penta[c]pyrrole-2-carbonyl)-4-methyl-1H-pyrazole-3-carboxylic acid] | D (% inhibition is greater than or equal to 0% and less than 25%)
Cc1cc(-c2ccccc2)ccc1CN1CCN(C(=O)n2ccc(C(=O)O)n2)[C@H](C)C1 [Example 245, (R)-1-(2-methyl-4-((3-methyl-[1,1′-biphenyl]-4-yl)methyl)piperazine-1-carbonyl)-1H-pyrazole-3-carboxylic acid] | D (% inhibition is greater than or equal to 0% and less than 25%)
C[C@H]1CN(Cc2cc(F)cc(Oc3ccc(Cl)cc3)c2)CCN1C(=O)n1ccc(C(=O)O)n1 [Example 347, (S)-1-(4-(3-(4-chlorophenoxy)-5-fluorobenzyl)-2-methylpiperazine-1-carbonyl)-1H-pyrazole-3-carboxylic acid] | D (% inhibition is greater than or equal to 0% and less than 25%)
C[C@H]1CN(Cc2ccc(C(F)(F)F)cc2N2CCCC2)CCN1C(=O)n1ccc(C(=O)O)n1 [Example 328, (S)-1-(2-methyl-4-(2-(pyrrolidin-1-yl)-4-(trifluoromethyl)benzyl)piperazine-1-carbonyl)-1H-pyrazole-3-carboxylic acid] | D (% inhibition is greater than or equal to 0% and less than 25%)
O=C(O)c1ccn(C(=O)N2C[C@H]3C[C@H](Oc4cc(Cl)cc(Cl)c4)C[C@H]3C2)n1 [Example 230, 1-(trans-5-(3,5-dichlorophenoxy)octahydrocyclo-penta[c]pyrrole-2-carbonyl)-1H-pyrazole-3-carboxylic acid] | D (% inhibition is greater than or equal to 0% and less than 25%)
C[C@H]1CC[C@H](C)N1c1cc(C(F)(F)F)ccc1CN1CCN(C(=O)n2ccc(C(=O)O)n2)CC1 [Example 360, 1-(4-(2-((2S,5S)-2,5-dimethylpyrrolidin-1-yl)-4-(trifluoromethyl)benzyl)piperazine-1-carbonyl)-1H-pyrazole-3-carboxylic acid] | D (% inhibition is greater than or equal to 0% and less than 25%)
CN(Cc1cc(N2CCCC2)cc(C(F)(F)F)c1)C1(C)CCN(C(=O)n2ccc(C(=O)O)n2)CC1 [Example 381, 1-(4-methyl-4-(methyl(3-(pyrrolidin-1-yl)-5-(trifluoromethyl)benzyl)amino)piper-idine-1-carbonyl)-1H-pyrazole-3-carboxylic acid] | D (% inhibition is greater than or equal to 0% and less than 25%)
C[C@@H]1CN(Cc2ccc(C(F)(F)F)cc2N2C3CCC2COC3)CCN1C(=O)n1ccc(C(=O)O)n1 [Example 393, 1-((2R)-4-(2-(3-oxa-8-azabicyclo[3.2.1]octan-8-yl)-4-(trifluoromethyl)benzyl)-2-methylpiperazine-1-carbonyl)-1H-pyrazole-3-carboxylic acid] | D (% inhibition is greater than or equal to 0% and less than 25%)
C[C@@H]1CC[C@@H](C)N1c1cc(C(F)(F)F)ccc1CN1CCN(C(=O)n2ccc(C(=O)O)n2)CC1 [Example 359, 1-(4-(2-((2R,5R)-2,5-dimethylpyrrolidin-1-yl)-4-(trifluoromethyl)benzyl)piperazine-1-carbonyl)-1H-pyrazole-3-carboxylic acid] | D (% inhibition is greater than or equal to 0% and less than 25%)
O=C(O)c1ccn(C(=O)N2C[C@H]3C[C@H](Oc4cccc(-c5cccnc5)c4)C[C@H]3C2)n1 [Example 241, 1-(trans-5-(3-(pyridin-3-yl)phenoxy)octa-hydrocyclopenta-[c]pyrrole-2-carbonyl)-1H-pyrazole-3-carboxylic acid] | D (% inhibition is greater than or equal to 0% and less than 25%)
NC(=O)c1ccn(C(=O)N2CC3CN(Cc4ccc(C5(C(=O)O)CCOCC5)cc4C(F)(F)F)CC3C2)n1 (centres unmarked) [Example 35, 4-(4-((5-(3-carbamoyl-1H-pyrazole-1-carbonyl)hexahydropyrrolo[3,4-c]pyrrol-2(1H)-yl)methyl)-3-(trifluoromethyl)phenyl)tetrahydro-2H-pyran-4-carboxylic acid] | D (% inhibition is greater than or equal to 0% and less than 25%)
CC(C)c1cccc(O[C@H]2C[C@@H]3CN(C(=O)n4ccc(C(=O)O)n4)C[C@@H]3C2)c1 [Example 220, 1-(trans-5-(3-isopropylphenoxy)ocatahydrocyclo-penta[c]pyrrole-2-carbonyl)-1H-pyrazole-3-carboxylic acid] | C (% inhibition is greater than or equal to 25% and less than 50%)
CN(Cc1cccc(C(F)(F)F)c1N1CCCC1)C1(C)CCN(C(=O)n2ccc(C(=O)O)n2)CC1 [Example 382, 1-(4-methyl-4-(methyl(2-(pyrrolidin-1-yl)-3-(trifluoromethyl)benzyl)amino)piper-idine-1-carbonyl)-1H-pyrazole-3-carboxylic acid] | D (% inhibition is greater than or equal to 0% and less than 25%)
C[C@@H]1CN(Cc2ccc(C(F)(F)F)cc2N2CCCC2)CCN1C(=O)n1ccc(C(=O)O)n1 [Example 327, (R)-1-(2-methyl-4-(2-(pyrrolidin-1-yl)-4-(trifluoromethyl)benzyl)piperazine-1-carbonyl)-1H-pyrazole-3-carboxylic acid] | D (% inhibition is greater than or equal to 0% and less than 25%)
C[C@@H]1C[C@@H](N(C)Cc2cccc(C(F)(F)F)c2)CCN1C(=O)n1ccc(C(N)=O)n1 [Example 260, 1-((2R,4S)-2-methyl-4-(methyl(3-(trifluoromethyl)benzyl)amino)piperidine-1-carbonyl)-1H-pyrazole-3-carboxamide] | A (% inhibition is greater than or equal to 75%)
O=C(O)c1nn(C(=O)N2CCC3(CCN(Cc4cc(Cl)cc(C(F)(F)F)c4)C3)CC2)cc1Cl [Example 388, 4-chloro-1-(2-(3-chloro-5-(trifluoromethyl)benzyl)-2,8-diazaspiro[4.5]decane-8-carbonyl)-1H-pyrazole-3-carboxylic acid] | D (% inhibition is greater than or equal to 0% and less than 25%)
O=C(O)c1nn(C(=O)N2CCC3(CCN(Cc4cccc(Cl)c4C(F)(F)F)C3)CC2)cc1Cl [Example 26, 4-Chloro-1-(2-(3-chloro-2-(trifluoromethyl)benzyl)-2,8-diazaspiro[4.5]decane-8-carbonyl)-1H-pyrazole-3-carboxylic Acid] | D (% inhibition is greater than or equal to 0% and less than 25%)
O=C(O)c1ccn(C(=O)N2CCC(Oc3ccc(C(F)(F)F)cc3N3CCCC3)CC2)n1 [Example 307, 1-(4-(2-(pyrrolidin-1-yl)-4-(trifluoromethyl)phenoxy)piperidine-1-carbonyl)-1H-pyrazole-3-carboxylic acid] | D (% inhibition is greater than or equal to 0% and less than 25%)
CN(Cc1ccc(C(F)(F)F)c(N2CCCC2)c1)C1(C)CCN(C(=O)n2ccc(C(=O)O)n2)CC1 [Example 385, 1-(4-methyl-4-(methyl(3-(pyrrolidin-1-yl)-4-(trifluoromethyl)benzyl)amino)piper-idine-1-carbonyl)-1H-pyrazole-3-carboxylic acid] | D (% inhibition is greater than or equal to 0% and less than 25%)
O=C(O)c1ccn(C(=O)N2CCC(Oc3cc(N4CCCC4)cc(C(F)(F)F)c3)CC2)n1 [Example 308, 1-(4-(3-(pyrrolidin-1-yl)-5-(trifluoromethyl)phenoxy)piperidine-1-carbonyl)-1H-pyrazole-3-carboxylic acid] | D (% inhibition is greater than or equal to 0% and less than 25%)
C[C@H]1CN(Cc2cccc(Oc3ccc(Cl)cc3)c2)CCN1C(=O)n1ccc(C(=O)O)n1 [Example 311, (S)-1-(4-(3-(4-chlorophenoxy)benzyl)-2-methylpiperazine-1-carbonyl)-1H-pyrazole-3-carboxylic acid] | D (% inhibition is greater than or equal to 0% and less than 25%)
CN(Cc1cc(C(F)(F)F)ccc1N1CCCC1)C1(C)CCN(C(=O)n2ccc(C(=O)O)n2)CC1 [Example 384, 1-(4-methyl-4-(methyl(2-(pyrrolidin-1-yl)-5-(trifluoromethyl)benzyl)amino)piper-idine-1-carbonyl)-1H-pyrazole-3-carboxylic acid] | D (% inhibition is greater than or equal to 0% and less than 25%)
O=C(O)c1ccn(C(=O)N2CCC3(CCN(Cc4cc(Cl)cc(Cl)c4Cl)C3)CC2)n1 [Example 337, 1-(2-(2,3,5-trichlorobenzyl)-2,8-diazaspiro[4.5]decane-8-carbonyl)-1H-pyrazole-3-carboxylic acid] | D (% inhibition is greater than or equal to 0% and less than 25%)
C[C@@H]1C[C@H](N(C)Cc2cccc(C(F)(F)F)c2)CCN1C(=O)n1ccc(C(N)=O)n1 [Example 257, 1-((2R,4R)-2-methyl-4-(methyl(3-(trifluoromethyl)benzyl)amino)piperidine-1-carbonyl)-1H-pyrazole-3-carboxamide] | A (% inhibition is greater than or equal to 75%)
C[C@@H]1CN(Cc2ccc(-c3ccccc3)cc2Cl)CCN1C(=O)n1ccc(C(=O)O)n1 [Example 291, (R)-1-(4-((3-chloro-[1,1′-biphenyl]-4-yl)methyl)-2-methylpiperazine-1-carbonyl)-1H-pyrazole-3-carboxylic acid] | C (% inhibition is greater than or equal to 25% and less than 50%)
